Converted amounts (≈) assume the structure as drawn.
Tests used:
Type in all cases: cell-based
normal PBMNCs = assay: cells; conditions: Homo sapiens
Description: Cells: Dexamethasone (Dex)-sensitive MM.1S (wild-type p53) and Dex-resistant MM.1R, RPMI 8226-Dox40 (doxorubicin resistant) and RPMI 8226-LR5 (melphalan resistant) human multiple myeloma (MM) cell lines were used. RPMI-8226 and U266 cells were obtained from the American Type Culture Collection (Rockville, Md.). SU-DHL-4 cells were also utilized. Fresh peripheral blood mononuclear cells (PBMNCs) were obtained from healthy subjects after informed consent. The PBMNC were separated from heparinized peripheral blood by Ficoll-Hipaque density sedimentation. BM specimens were acquired from patients with MM after obtaining informed consent and mononuclear cells were separated by Ficoll-Hipaque density sedimentation. […]
Reagents: Honokiol (HNK; Calbiochem, San Diego, Calif.) was dissolved in ethanol at 20 mg/ml stock solution. […] Absorbance readings at a wavelength of 450 nm were taken on a spectrophotometer (Molecular Devices Corp., Sunnyvale, Calif.).
HNK inhibits growth of MM cell lines. To identify the therapeutic potential of HNK, MM cell lines and normal PBMNCs were cultured at indicated concentration with HNK for 48 h, and growth was determined by calorimetric assays. […] FIGS. 6A and B show growth inhibition in MM cell lines by HNK as assessed by calorimetric assay after 48 h-culture. […]

[1] = tested on: microvascular endothelial cells; assay: endothelial proliferation with TRAIL antibody; conditions: 0, 1, 6 or 9 μg/ml, 48 h
Method: 10^4/well microvascular endothelial cells were cultured in 24-well plates for 24 h. The next day, cells were washed by PBS and pretreated with 0.5 ml/well fresh MEC medium with 0, 1, 6, or 9 μg/ml honokiol for 30 min before addition of TRAIL or isotype control antibody (30 μg/well). Cells were incubated for 48 h after the addition of reagents and were counted with a Coulter Counter. The green bars represent endothelial cells treated with honokiol alone, the dark blue bars represent cells treated with honokiol and TRAIL antibody, and the light blue bars represent cells treated with honokiol and isotype control antibody. The differences in honokiol-treated endothelium in the presence or absence of TRAIL antibody are significant (p<0.05).

MCF-7 cells = assay: Apoptosis analysis (annexin V and PI); conditions: MCF-7, 60 μM, 24 hours (control 1%±0.5%)
Method: Apoptosis analysis: 5×10^6 cells were placed in the appropriate culture media containing 10% FCS, and treated with either control vehicle or various concentrations of HNK, as indicated for 24 h. Following treatment, cells were harvested, and stained with PI and Annexin V, using the Annexin V-PE Apoptosis Detection Kit I (BD Pharmingen, San Diego, Calif.) according to the manufacturer protocol. Flow cytometry was performed at the Flow Cytometry Core facility of Cedars-Sinai Medical Center, using FACScan (Becton Dickinson, Franklin Lakes, N.J.). For studies using z-VAD-fmk to inhibit caspase activity, 5×10^6 cells were incubated with 50 μM z-VAD-fmk for 60 minutes prior to addition of HNK.
HNK induces apoptosis in breast cancer cell lines. […] The ability of HNK to induce apoptosis and cell death in breast cancer cell lines was investigated. MCF-7 cells were treated with HNK (60 μM for six or 24 hours) and apoptosis and cell death were assessed using annexin V and PI staining (FIG. 5 A). […] Upregulation of BAX was also noticed, (85% increase at 40 μM compared to control, as analyzed by densitometry) but no significant changes in BCL-2 or BAD levels were observed. Only partial inhibition of apoptosis was observed following pretreatment with z-VAD-fmk.

C=CCc1ccc(O)c(-c2ccc(O)c(CC=C)c2)c1 [HNK, Honokiol]
IC50 (normal PBMNCs): 40 to 80 µg/mL (≈ 150 to 300 µM) | inhibition of endothelial proliferation with or without TRAIL antibody [1]: TRAIL-dependent | annexin V-positive, PI-negative cells (MCF-7 cells): 16%±3%
